Reference: patent US20240424134A1, “PEPTIDE HAVING INDEPENDENTLY STABILIZED HYDROPHOBIC ALPHA HELIX, PEPTIDE COMPLEX COMPRISING SAME AND USES THEREOF” (UIF (University Industry Foundation), Yonsei University, priority 2022, published 2024)
Entries after “also recorded” stand apart in the source; their conditions may differ. Non-standard residues stand in square brackets, D forms with d. No end group written: not given here. Aib = CC(C)(N)C(=O)O

Legend:
Format in all cases: physicochemical
[1] = AFM of self-assembly with or without magnetic field
Method: AFM was performed using the NX10 system (Park Systems, Korea) in a non-contact mode with PPP-NCHR AFM probes (Nanosensors, Switzerland). The peptide complex (specimen) dispersed in an aqueous solvent was placed between neodymium magnets and measurements were compared before and after the application of a magnetic field. The magnetic field intensity was measured using a Model 450 gaussmeter (Lake Shore Cryotronics, USA).
It was confirmed that the peptide complex according to the present disclosure is highly sensitive to a magnetic field and the α-helix structure can be controlled with a magnetic field. It was also investigated whether the self-assembly process of the peptide complex is affected by a magnetic field. The peptide complexes of Examples 51 and 99 were dissolved in aqueous solvents to induce self-assembly. The aqueous solvents were sonicated to prevent aggregation for clear observation. The aqueous solvent was placed in the equipment shown in FIG. 44f and measured by AFM after incubation overnight. The AFM measurement was also made before the treatment for comparison before and after the application of the magnetic field.

[2] = CD (circular dichroism) spectroscopy of α-helix structure; conditions: for θ222 nm/θ208 nm ratio: Table 11, peptide complexes of Examples 37-97; for [6]222/[θ]208 ratio: before magnetic field (CD), 20 μM in distilled water
Method: To evaluate the structures of a linear plasmid DNA and peptides, CD spectra were analyzed using a Chirascan CD spectrometer (Applied Photophysics, UK). […] The final concentration of the linear plasmid DNA was 30 ng/μL. All the samples were dissolved in H2O. For the formation of the artificial chromosome, a mixture of the peptide and the DNA was incubated for 12 days or longer. Scanning was performed using a 2-mm path-length cuvette. Each scan was repeated three times and averaged. MRE (mean residue ellipticity) was calculated based on the number of amino acid residues.
CD (circular dichroism) spectroscopy was performed as follows.
The CD spectra were analyzed using a Chirascan CD spectrometer (Applied Photophysics, UK). […] All the samples were dissolved in H2O. Each scan was repeated three times using a 2-mm path-length cuvette and averaged. MRE (mean residue ellipticity) was calculated based on the number of amino acid residues.

[3] = MCD (magnetic circular dichroism) under 1.6 T magnetic field; conditions: magnetic field of 1.6 T applied (MCD)
Method: (§1) MCD (magnetic circular dichroism) spectra were obtained using a Jasco-815 159-L spectrophotometer (Jasco, Japan). The concentration of the peptides was 20 μM in distilled water. Measurements were performed using a 2-mm path-length cuvette. The magnetic field of the permanent magnet in the MCD accessory (PM-491) was 1.6 T. Each scan was repeated three times and averaged.
as §1, with “peptide complex” for “peptides”
MCD (magnetic circular dichroism) analysis was performed to investigate whether the helical stability of the αm peptide in the peptide complex according to the present disclosure is affected by the magnetic field. The peptide complexes of Examples 47 and 99 have partially stable α-helices. When a magnetic field of 1.6 T was applied to the peptide complexes of Examples 47 and 99 (FIGS. 44d, 44e), the contents of α-helices, i.e. the [θ]222/[6]208 ratios, were increased in both molecules. […]

[4] = AFM analysis of self-assembled peptide complexes; conditions: for Average diameter (nm) / AFM morphology: Table 12, self-assembled structure; for AFM morphology: 25 μM in distilled water
Method: AFM was performed using an NX10 system (Park Systems, Korea) in a non-contact mode with PPP-NCHR AFM probes (Nanosensors, Switzerland). The DNA concentration ranged from 1 to 30 ng/μL and the peptide concentration ranged from 1 to 32 μM (in H2O). 2 μL of the sample solution was cast onto a freshly cleaved mica surface and dried. The data obtained by the SmartScan program (Park Systems, Korea) was analyzed using the XEI program (Park Systems, Korea).
The CD spectroscopy was performed in the same manner as in Test Example 2 and the AFM was performed using the NX10 system (Park Systems, Korea) in a non-contact mode with PPP-NCHR AFM probes (Nanosensors, Switzerland). The peptide complex concentration ranged from 1 to 32 μM (in H2O). 2 μL of the sample solution was cast onto a freshly cleaved mica surface and dried. The data obtained by the SmartScan program (Park Systems, Korea) were analyzed using the XEI program (Park Systems, Korea).
The peptide complexes of Examples 37-40 were imaged by AFM. 25 μM of the peptide complex was dissolved in distilled water, sonicated for 5 minutes, incubated overnight and dropped on mica for measurement.

[5] = NMR residual dipolar couplings (RDC) under magnetic field; conditions: difference of 21.14 T and 16.45 T; 21 residues of α10; methanol-d3/chloroform-d
Method: ^1H NMR and ^2D ^1H-^15N IPAP-HSQC (in-phase/anti-phase heteronuclear single quantum coherence) NMR spectra were acquired at 298 K using a Bruker AVANCE IV 900 MHz spectrometer and a BrukerAVANCE Ill HD 700 MHz spectrometer, both equipped with cryogenic probes. The NMR sample of PEG30-α10-PEG30 was dissolved in methanol-d3/chloroform-d (1:1) containing 0.05% TFA at a concentration of 4.26 mM. The acquisition parameters of IPAP were 2048 t2×1024 t1 points, 8 scans, 0.2 second recycle delay, 14 ppm spectral width for ^1H and 26 ppm spectral width for ^15N. The acquired data were split into two data sets, IP and AP, using a TopSpin software (Bruker, Germany). […]
Anisotropic diamagnetic molecules placed in an isotropic solution are aligned when a magnetic field is applied. The behavior of the peptide according to the present disclosure under a magnetic field was analyzed. For this, RDCs (residual dipolar couplings) between ^1H-^15N amide pairs (^1DNH) were measured by NMR (nuclear magnetic resonance) at 16.45 T (700.400 MHz) and 21.14 T (900.230 MHz). […]
Specifically, ^1H NMR and ^2D ^1H-^15N IPAP-HSQC (in-phase/anti-phase heteronuclear single quantum coherence) NMR spectra were analyzed at 298 K using a BrukerAVANCE IV 900 MHz spectrometer and a BrukerAVANCE Ill HD 700 MHz spectrometer equipped with cryogenic probes. […] Peak positions were analyzed using the NMRFAM-SPARKY software.

[6] = in the absence of the magnetic field
[7] = Table 9, linear and cyclic αm-PEG10 peptide complexes, in H2O

Row | Substance | θ222 nm/θ208 nm ratio [2] | Average diameter (nm) [4] | AFM morphology [4] | other results
1 | WAUAUAUAUAU(PEG2)5 [Example 47] | 0.84 |  |  | self-assembled structure [1, 6]: highly uniform micelle-like spherical self-assembled structures; self-assembled structure ([1]; magnetic field (0.07 T) applied): anisotropic and unique planar nanostructures; [θ]222/[θ]208 [2, 7]: 0.84; [6]222/[θ]208 ratio [2]: 0.86; [6]222/[θ]208 ratio [3]: 0.91
2 | WAUAUAUAUAU(PEG2)5 [Example 99] |  |  |  | self-assembled structure [1, 6]: vesicle-like spherical self-assembled structures; self-assembled structure ([1]; magnetic field (0.25 T) applied): cruciform anisotropic nanostructures; [θ]222/[θ]208 [2, 7]: 0.93; [θ]222/[θ]208 ([2]; Table 13, cyclic peptide complexes): 0.93; [6]222/[θ]208 ratio [2]: 0.89; [6]222/[θ]208 ratio [3]: 1.01
3 | Example 39: peptide complex (Wαm-RGD), SEQ ID NO 39 (A[Aib]A[Aib]A[Aib]A[Aib]A[Aib]A[Aib]A[Aib]AGRGDRGDG) | 0.7 | 20 nm | Micelle | average diameter ([4]; AFM): 20 nm; self-assembly behavior in an aqueous solvent ([4]; AFM): self-assembled into spherical particles such as micelles; also recorded: micelle particles; average height ([4]; AFM, FIG. 80): 2-4 nm; length of micelle particles ([4]; AFM, FIG. 80): 6-10 nm
4 | RRRAUAUAUAUAUAUAUAUAUAUA(PEG8)2 [Example 62] | 1.08 | 110-150 nm | Vesicle | 
5 | (PEG8)2 AUAUAUAUAUAUAUA [Example 56] | 1.11 | 20-40 nm | Micelle | 
6 | (PEG10)3AUAUAUAUAUAUAUAUAUAUA(PEG10)3 [Example 128] |  |  |  | [θ]222/[θ]208 ([2]; Table 14, coil-rod-coil peptide complexes): 1.15; average RDC value (1DNH, exp) [5]: 2.007 Hz
7 | EEEEAUAUAUAUAUAUAUAUAUAUA(PEG8)2 (EEEEAXAXAXAXAXAXAXAXAXAXA; (PEG8)2 C-terminal; SITE 6 2-aminoisobutyric acid; SITE 8 2-aminoisobutyric acid; SITE 10 2-aminoisobutyric acid; SITE 12 2-aminoisobutyric acid; SITE 14 2-aminoisobutyric acid; SITE 16 2-aminoisobutyric acid; SITE 20 2-aminoisobutyric acid; SITE 18 2-aminoisobutyric acid; SITE 22 2-aminoisobutyric acid; SITE 24 2-aminoisobutyric acid) [Example 93] | 1.16 | 180-360 nm | Vesicle | 
8 | EAUAUAUAUAUAUAUAUAUAUA(PEG8)2 [Example 90] | 1.21 | 20-30 nm | Micelle | 
9 | Example 37: peptide complex (Wαm-RGD), SEQ ID NO 37 (A[Aib]A[Aib]A[Aib]A[Aib]AGRGDRGDG) | 0.28 |  | Irregular vesicle | 
10 | EAUAUAUAUAUAUAUAUAUAUAGSGSGSGS (EA[Aib]A[Aib]A[Aib]A[Aib]A[Aib]A[Aib]A[Aib]A[Aib]A[Aib]A[Aib]AGSGSGSGS) [Example 95] | 1.2 | 240-280 nm | Vesicle | 
11 | RGDRGDAUAUAUAUAUAUAUAUAUAUAR [Example 70] | 1.14 | 50 nm | Vesicle | 
12 | RAUAUAUAUAUAUAUAUAUAUARGDRGDRGD [Example 64] | 1.1 | 30-40 nm | Micelle | 
13 | EEEAUAUAUAUAUAUAUAUAUAUA(PEG8)2 [Example 92] | 1.2 | 200 nm | Vesicle | 
14 | RAUAUAUAUAUAUAUA(PEG8)2 [Example 59] | 0.77 | 160-410 nm | Vesicle | 
15 | (PEG8)2 AUAUAUAUA [Example 55] | 0.58 |  | Not assembled | 
16 | RAUAUAUAUAUAUAUAUAUAUARGDRGDRGDRGD [Example 65] | 0.94 | 20 nm | Micelle | 
17 | AUAUAUAUAUAUAUA(PEG8)2 [Example 53] | 1.11 | 20-30 nm | Micelle | 
18 | RRRAUAUAUAUAUAUAUAUAUAUAGRGDRGDRGDG (RRRA[Aib]A[Aib]A[Aib]A[Aib]A[Aib]A[Aib]A[Aib]A[Aib]A[Aib]A[Aib]AGRGDRGDRGDG) [Example 69] | 0.88 | 40-260 nm | Vesicle | 
19 | (PEG8)2 AUAUAUAUAUAUAUAUAUAUA [Example 57] | 1.22 | 30-80 nm | Vesicle | 
20 | RGDRGDRGDAUAUAUAUAUAUAUAUAUAUAR [Example 71] | 1.12 | 50-100 nm | Vesicle | 
